The test system of assay [1] is tetrabenazine-induced depression. The experiment in a line: Antagonism (prevention) of tetrabenazine-induced sedation and depression in mice, orally. It is filed as in vivo, mice (Carworth CF1 S female). To be noted: tetrabenazine 32 mg/kg i.p. 30 min after compound; for ED50: Mus musculus, po, 1 h. From the text: A standard procedure for detecting and comparing the antidepressant activity of the compounds of this invention, for which there is good correlation with human efficacy, is the prevention of tetrabenazine-induced sedation and depression in mice. (Everett, "The Dopa Response Potentiation Test and Its Use in Screening for Antidepressant Drugs", pp. 164-167 in Antidepressant Drugs [Proceedings of the First International Symposium], S. Garattini and M. N. G. Dukes (editors), 1967).
Groups of 10 Carworth CF1 S female mice, 18-21 g each, each fasted 1.5 h and were intubated with antagonist compounds at oral doses, such as 0, 1, 3, 9, 27 and 81 mg/kg in 0.20 mL of 1% Methocel® (methylcellulose).The mice were challenged 30 minutes later with tetrabenazine (as the methanesulfonate), 32 mg/kg intraperitoneally (dissolved in 0.20 mL 0.05% aqueous KCl at pH 2.0). One hour after administration of antagonist (30 minutes after administration of tetrabenazine) the mice were examined for signs of exploratory activity and ptosis (eye lid closure). Normal exploratory activity (relief from sedation) was recorded when a mouse, lifted by the tail from a group of 10 in a testing box and placed on a stainless steel testing box lid (12.5 inch (31.8 cm) by 8 inch (20.3 cm) with 0.33 inch mesh), either turned its head horizontally 30° in both directions or moved to the edge of the screen within 10 seconds after being placed on the screen. Relief from ptosis was recorded when, at exactly two seconds after placing the mouse facing the observer, lid closure was less than 50% in both eyes.

A short description of assay [2]: Anorexia test from CNS screen (milk consumption in fasted mice). Type of assay: in vivo. The following applies: fasted female mice, 0.5 h after dosing, 30 min milk access, ED50 estimated from quantal responses; for ED50: Mus musculus, po, 0.5 h. The protocol: Female mice weighing 16-20 grams and fasted overnight for 17-21 h are used in these studies. At 0.5 h after administration of graded oral doses of compound prepared in aqueous Methocel® (methylcellulose, viscosity 100 CPS, grade MC, Dow Chemical Co.) and 2.8% Tween 80 and dosed at 0.1 mL per 10 grams of body weight, each mouse is transferred to an individual, clear, Lucite® compartment (13.3 cm×12.7 cm×12.7 cm) with a 0.64 cm×0.64 cm wire mesh floor. Five compartments are linearly arranged in each cage unit. Inside each compartment is a section of a black Lucite® bar (13 cm×1.2 cm×1.2 cm), in the top of which are ten spot depressions (0.8 cm diameter), each containing 0.05 mL of 50% sweetened condensed milk (Borden's Eagle Brand). 30 Minutes later the mice are returned to the "shoe-box" containers and the number of milk spots consumed by each mouse is counted. Fractions of spots consumed are also estimated and counted. Five mice […] per drug dose can drink a maximum of 50 spots (2.5 mL of milk). Nine or fewer spots consumed by 5 mice is considered to indicate anorexia. ED50 values are estimated based on the quantal responses obtained.

For assay [3], the system named is tetrabenazine-induced depression. The assay is described as follows: Antagonism (prevention) of tetrabenazine-induced sedation and depression in mice, orally. It is filed as in vivo, mice (Carworth CF1 S female). To be noted: Mus musculus, po, footnote *: peak time values.
Where [4] appears, read: read-out: ORAL ED50 for prevention of exploratory loss, mice, oral, at one hour post-drug.
The mark [5] stands for this setting: read-out: ORAL ED50 for prevention of ptosis, mice, oral, at one hour post-drug.
Setting [6] is: mice, oral, at one hour post-drug, 60 min.

Structures are written as SMILES. Read-outs that look alike come from different tables or passages of the source.

Regarding `Cc1cccc(C2(C(C)(C)O)CCN(C)CC2)c1` [Example 10, 4-(3'-Tolyl)-α,α,1-trimethyl-4-piperidinemethanol], the 50% effective dose (ED50) in assay [1] (setting [4]) is 0.04 mg/kg; in assay [1] (setting [5]), 0.04 mg/kg; in assay [2] it was 20 mg/kg.

For the compound `CN1CCC(c2ccc(Oc3ccccc3)cc2)(C(C)(C)O)CC1` [Example 32, 4-(4'-Phenoxyphenyl)-α,α,1-trimethyl-4-piperidinemethanol], the ED50 in assay [1] (setting [4]) was greater than 81 mg/kg; in assay [1] (setting [5]), 81 mg/kg; in assay [2] it was 60 mg/kg.

As to `COc1cccc(C2(C(C)(C)O)CCN(Cc3ccccc3)CC2)c1OC` [Example 37, 4-(2',3'-Dimethoxyphenyl)-1-benzyl-α,α-dimethyl-4-piperidinemethanol], the ED50 in assay [1] (setting [4]) was greater than 81 mg/kg; in assay [1] (setting [5]) it was 81 mg/kg; in assay [2] it was 60 mg/kg.

On to `CCC(C)(O)C1(c2cccc(C(F)(F)F)c2)CCN(C)CC1` (stereo not drawn) [Example 31, 4-(3'-Trifluoromethylphenyl)-α,1-dimethyl-α-ethyl-4-piperidinemethanol], for which the 50% effective dose (ED50) in assay [1] (setting [4]) was 0.064 mg/kg; in assay [1] (setting [5]) it was 0.056 mg/kg; in assay [2], 20 mg/kg.

As for `CCN1CCC(c2cccc(C(F)(F)F)c2)(C(C)(C)O)CC1` [Example 41, 4-(3'-Trifluoromethylphenyl)-α,α-dimethyl-1-ethyl-4-piperidinemethanol], the ED50 in assay [1] (setting [4]) was 0.73 mg/kg; in assay [1] (setting [5]) it was 0.46 mg/kg; in assay [2], 60 mg/kg.

As to `CN1CCC(c2ccc(Cl)cc2)(C(C)(C)O)CC1` [Example 7, 4-(4'-Chlorophenyl)-α,α,1-trimethyl-4-piperidinemethanol], the median effective dose (ED50) in assay [1] (setting [4]) is 0.57 mg/kg; in assay [1] (setting [5]), 0.33 mg/kg; in assay [2], 20 mg/kg.

In the case of `CN1CCC(c2cccc(C(F)(F)F)c2)(C2(O)CCCC2)CC1` [Example 30, 1-[1'-Methyl-4'-(3"-trifluoromethylphenyl)-4'-piperidinyl]cyclopentanol], the ED50 was 0.17 mg/kg in assay [1] (setting [4]), 0.084 mg/kg in assay [1] (setting [5]) and 60 mg/kg in assay [2].

`CN1CCC(c2cccc(C(F)(F)F)c2)(C(C)(C)O)CC1` [Example 2, 4-(3'-Trifluoromethylphenyl)-α,α,1-trimethyl-4-piperidinemethanol]: the values for the ED50 in assay [1] (setting [4]), in assay [1] (setting [5]) and in assay [2] were 0.01 mg/kg, 0.016 mg/kg and 60 mg/kg, respectively.

Take `CN1CCC(c2cccc(C(F)(F)F)c2)(C(C)(C)O)CC1` [Example 2A, 4-(3'-Trifluoromethylphenyl)-α,α,1-trimethyl-4-piperidinemethanol]: in assay [1] (setting [6]), the “ORAL ED50 for prevention of exploratory loss” value came to 0.01 mg/kg and the “ORAL ED50 for prevention of ptosis” value came to 0.014 mg/kg. Besides, the ED50 for anorexia in assay [2] (oral) was 36 mg/kg.

As for `CN1CCC(c2cccc(F)c2)(C(C)(C)O)CC1` [Example 4, 4-(3'-Fluorophenyl)-α,α,1-trimethyl-4-piperidinemethanol], the 50% effective dose (ED50) in assay [1] (setting [4]) is 0.2 mg/kg; in assay [1] (setting [5]), 0.12 mg/kg; in assay [2], 60 mg/kg.

Take `CCC(C)(O)C1(c2cccc(OC)c2)CCN(C)CC1` (stereo not drawn) [Example 17, 4-(3'-Methoxyphenyl)-α,1-dimethyl-α-ethyl-4-piperidinemethanol]: the values for the median effective dose (ED50) in assay [1] (setting [4]), in assay [1] (setting [5]) and in assay [2] were 0.1 mg/kg, 0.11 mg/kg and 60 mg/kg, respectively.

Consider `COc1ccc2cc(C3(C(C)(C)O)CCN(C)CC3)ccc2c1` [Example 39, 4-(6'-Methoxy-2'-naphthyl)-α,α,1-trimethyl-4-piperidinemethanol], for which the ED50 in assay [1] (setting [4]) was 0.33 mg/kg; in assay [1] (setting [5]), less than 0.33 mg/kg; in assay [2], 60 mg/kg.

For `CN1CCC(c2cccc(Cl)c2)(C(C)(C)O)CC1` [Example 6, 4-(3'-Chlorophenyl)-α,α,1-trimethyl-4-piperidinemethanol], the ED50 in assay [1] (setting [4]) is 0.04 mg/kg; in assay [1] (setting [5]) it was 0.03 mg/kg; in assay [2] it was 60 mg/kg.

On to `COc1cccc(C2(C(C)(C)O)CCN(C)CC2)c1` [Example 16, 4-(3'-Methoxyphenyl)-α,α,1-trimethyl-4-piperidinemethanol], for which the ED50 in assay [2] is 60 mg/kg; in assay [3] (read-out: ORAL ED50 for prevention of exploratory loss (peak time value), mice, oral) it was 0.12 mg/kg; in assay [3] (read-out: ORAL ED50 for prevention of ptosis (peak time value), mice, oral), 0.077 mg/kg.

On to `CCC(O)(CC)C1(c2cccc(Cl)c2)CCN(C)CC1` [Example 8, 4-(3'-Chlorophenyl)-α,α-diethyl-1-methyl-4-piperidinemethanol], for which the ED50 was 0.29 mg/kg in assay [1] (setting [4]), 0.26 mg/kg in assay [1] (setting [5]) and 20 mg/kg in assay [2].

What is called ED50 is the dose at which the effect has come halfway, by size or by number of responders.

The values above are taken from patent publication US4485109A, “4-Aryl-4-piperidinecarbinols” (E. I. Du Pont de Nemours and Company, priority 1983, dated 1984).
